Test [1] is described as follows: anti-inflammatory activity of the optical isomers and dl mixture (test not specified). The class given is in vivo. The conditions noted are these: α-methyl-fluorene-2-acetic acid, d and l optical isomers and dl mixture.
Test [2] has as its system carrageenin-induced edema in the hind paw of the rat. The experiment in a line: carrageenin-induced edema assay (oral, hind paw). The format is in vivo. The conditions noted are these: 5 h, carrageenin injected into hind paw 2 h after dose, edema weighed 3 h after injection, read-out: ID50 (calculated dose that produces 50 percent inhibition of the edema). On the procedure: The anti-inflammatory activities of fluorene-2-acetic acid and its derivatives may be tested by a carrageenin-induced edema assay. Carrageenin injected into the footpad of rats produces an edematous condition, due mainly to vaso-active mediators. The compound to be tested is administered orally and assessed for inhibition of the edema.
The following examples show the anti-inflammatory activity of fluorene-2-acetic acid and 7-chloro-fluorene-2-acetic acid as determined by carrageenin-induced edema assay.
The procedure for these experiments is to first orally administer the test compound to a rat. Two hours later a solution of carrageenin is injected into the plantar surface of the hind paw of the rat. Three hours after the injection (5 hours after administration of the drug) the edema in the treated paw is measured by weighing the paws. To establish the baseline, the weight of the contralateral paw is determined. A dose-response curve is established, and the activity of the drug is recorded as the calculated dose that produces 50 percent inhibition (ID50) of the edema.

Turning to `CC(C(=O)O)c1ccc2c(c1)Cc1ccccc1-2` (single isomer, unassigned) [d, α-methyl-fluorene-2-acetic acid], the anti-inflammatory activity result in test [1] is listed as “possesses anti-inflammatory activity”.

Consider `CC(C(=O)O)c1ccc2c(c1)Cc1ccccc1-2` (single isomer, unassigned) [l, α-methyl-fluorene-2-acetic acid], for which the anti-inflammatory activity entry in test [1] was “possesses anti-inflammatory activity”. Consider `O=C(O)Cc1ccc2c(c1)Cc1cc(Cl)ccc1-2` [7-chloro-fluorene-2-acetic acid], for which the ED50 in test [2] is approximately 150 mg/kg. `CC(C(=O)O)c1ccc2c(c1)Cc1ccccc1-2` (stereo not drawn) [dl mixture, α-Methyl fluorene-2-acetic acid]: the anti-inflammatory activity entry in test [1] is recorded as “possesses anti-inflammatory activity”. `O=C(O)Cc1ccc2c(c1)Cc1ccccc1-2` [fluorene-2-acetic acid]: the ED50 in test [2] was 67 mg/kg.

(Values after US4052436A, “Fluorene-2-acetic acids and derivatives, process and method of using” (E. R. Squibb & Sons, Inc., priority 1976, dated 1977).)
